From patent US11523998B2, “Anti-inflammatory formulations and uses thereof including a combination of palmitoylethanolamide and plant-based polyphenols” (The Texas A&M University System, priority 2018, dated 2022)
Values belong to the compound of their own block, whether it stands above or below them.

What was measured:
[1] = system: interleukin-1 beta (II-1β); assay: Il-1β mRNA expression (RT-qPCR) in LPS-activated RAW 264.7 macrophages; assay type: cell-based, murine; details: for reduction of IL-1β mRNA expression, alone at same molarity: around 3.4 μM (1.0 mg/L quercetin, 0.974 mg/L luteolin); for reduction of IL-1β mRNA expression: 1.0 mg/L alone
Method: RAW 264.7 murine macrophage cell line was purchased from American Type Culture Collection (ATCC-TIB71). Cells were cultured in high glucose Dulbecco's Modified Eagle Medium (DMEM) supplemented with stable glutamine (0.0584%) and sodium pyruvate (0.011%), 10% (v/v) heat-inactivated fetal bovine serum, and 1% (v/v) penicillin/streptomycin mix. Cells were maintained in an incubator at 37° C. with 5% CO2, and the medium was changed every two days. All assays were conducted in cells between the 3rd and the 15th passage. All treatments with PEA and other polyphenols were solubilized in dimethyl sulfoxide (DMSO) and further diluted in complete culture media immediately before use. LPS (10 ng mL-1) was used to induce inflammation in RAW 264.7 cultures.
Murine RAW 264.7 macrophage cells (1×10^5 cells per well) were seeded in 12-well plates and incubated for 24 hours. Cells were pre-treated with Palmitoylethanolamide (PEA) and other compounds of interest for 1 hour and then lipopolysaccharide (LPS), a major activating agent of macrophages, was added for a final concentration of 10 ng·mL-1. Cells were then incubated for 8 hours. Negative control (culture media only) and positive (LPS) controls, as well as a Vehicle (DMSO at a maximal concentration of 0.2%)+LPS were also performed. Total RNA was extracted and purified using an RNeasy mini kit (QIAGEN, Venlo, Netherlands) according to the manufacturer's protocol. mRNA quality and quantification were assessed with NanoDrop® ND-1000 (NanoDrop Technologies, Wilmington, Del., USA). cDNA synthesis was performed with the iScript Reverse Transcription Supermix (Bio-Rad Laboratories, Hercules, Calif., USA) according to the manufacturer's protocol. RT-qPCR reactions were performed using iTaq Universal Probes Supermix (Bio-Rad Laboratories, Hercules, Calif., USA). mRNA expression cyclooxygenase-2 (Cox-2) and interleukin-1 beta (II-1β) were analyzed using beta-actin (Actb) as a reference gene. The levels of transcripts were calculated relative to the control group by the 2-ΔΔCt method.
(§1) All data were analyzed by one-way analysis of variance (ANOVA) with Dunnet's or Sidak's posttest using GraphPad Prism 6.0 (GraphPad Software, La Jolla, Calif., USA).

cyclooxygenase-2 (Cox-2) = assay: Cox-2 mRNA expression (RT-qPCR) in LPS-activated RAW 264.7 macrophages; assay type: cell-based, murine; details: LPS 10 ng/mL; for downregulation of Cox-2 mRNA expression, compound alone: 9 h
Method: Cells were maintained in an incubator at 37° C. with 5% CO2, and the medium was changed every two days. All assays were conducted in cells between the 3rd and the 15th passage. All treatments with PEA and other polyphenols were solubilized in dimethyl sulfoxide (DMSO) and further diluted in complete culture media immediately before use.
Cells were pre-treated with Palmitoylethanolamide (PEA) and other compounds of interest for 1 hour and then lipopolysaccharide (LPS), a major activating agent of macrophages, was added for a final concentration of 10 ng·mL-1. Cells were then incubated for 8 hours. Negative control (culture media only) and positive (LPS) controls, as well as a Vehicle (DMSO at a maximal concentration of 0.2%)+LPS were also performed. Total RNA was extracted and purified using an RNeasy mini kit (QIAGEN, Venlo, Netherlands) according to the manufacturer's protocol. mRNA quality and quantification were assessed with NanoDrop® ND-1000 (NanoDrop Technologies, Wilmington, Del., USA). cDNA synthesis was performed with the iScript Reverse Transcription Supermix (Bio-Rad Laboratories, Hercules, Calif., USA) according to the manufacturer's protocol. RT-qPCR reactions were performed using iTaq Universal Probes Supermix (Bio-Rad Laboratories, Hercules, Calif., USA). mRNA expression cyclooxygenase-2 (Cox-2) and interleukin-1 beta (II-1β) were analyzed using beta-actin (Actb) as a reference gene. The levels of transcripts were calculated relative to the control group by the 2-ΔΔCt method.
as §1

SMILES: O=c1cc(-c2ccc(O)c(O)c2)oc2cc(O)cc(O)c12 [luteolin]
- reduction of IL-1β mRNA expression, alone at same molarity ([1]; alone, 9 h): 50%

SMILES: O=c1c(O)c(-c2ccc(O)c(O)c2)oc2cc(O)cc(O)c12 [quercetin]
- reduction of IL-1β mRNA expression ([1]; LPS 10 ng/mL): around 45%
- reduction of IL-1β mRNA expression, alone at same molarity ([1]; alone, 9 h): 78%
- lowest effective concentration of compound alone (II-1β expression) ([1]; LPS 10 ng/mL, 9 h): 1.0 mg/L

- expression of Cox-2 (cyclooxygenase-2 (Cox-2); PEA 2.0 mg/L): significantly decrease
SMILES: CCCCCCCCCCCCCCCC(=O)NCCO [PEA, N-(2-Hydroxyethyl)hexadecanamide]
- reduction of II-1β expression ([1]; 0.5 mg/L alone, LPS 10 ng/mL): 28%
- expression of the inflammatory cytokine II-1β ([1]; PEA 2.0 mg/L, after 1.0-10 ng/mL LPS): significantly decrease
- lowest effective concentration of compound alone (II-1β expression) ([1]; LPS 10 ng/mL, 9 h): 0.5 mg/L

SMILES: COc1cc(CNC(=O)CCCC/C=C/C(C)C)ccc1O [capsaicin]
- expression of IL-1β, compound alone (screening) ([1]; alone, LPS 10 ng/mL, 9 h): significant reduction
- expression of IL-1β, in combination with PEA (screening) ([1]; in combination with PEA, LPS 10 ng/mL, 9 h): significant reduction

SMILES: COc1cc(/C=C/C(=O)CC(=O)/C=C/c2ccc(O)c(OC)c2)ccc1O [curcumin]
- reduction of IL-1β mRNA expression ([1]; LPS 10 ng/mL): ~57%
- lowest effective concentration of compound alone (II-1β expression) ([1]; LPS 10 ng/mL, 9 h): 1.0 mg/L

SMILES: Oc1ccc(C=Cc2cc(O)cc(O)c2)cc1 [resveratrol]
- downregulation of II-1β mRNA expression, compound alone ([1]; alone, LPS 10 ng/mL, 9 h): did not reduce
- downregulation of II-1β mRNA expression, compound alone ([1]; alone, LPS 10 ng/mL, 9 h, listed as Resveratrol): no downregulation
- downregulation of Cox-2 mRNA expression, compound alone (cyclooxygenase-2 (Cox-2)): did not reduce
- downregulation of Cox-2 mRNA expression, compound alone (cyclooxygenase-2 (Cox-2); listed as Resveratrol): no downregulation

SMILES: CC(C)Cc1ccc(C(C)C(=O)O)cc1 (centres unmarked) [ibuprofen]
- inflammatory state of the cells (II-1β and Cox-2 expression, screening) ([1]; tested concentration, LPS 10 ng/mL, 9 h): did not improve the inflammatory state of the cells
